From patent US10456398B2, “Inhibition of SGK1 in the treatment of heart conditions” (Beth Israel Deaconess Medical Center, Inc., priority 2013, dated 2019) come the findings set out here.

The structures appear in SMILES notation.

In one data set the test system is bkd−/− mutant zebrafish. The data set can be described thus: rescue of 2:1 AV block phenotype in breakdance (bkd−/−) mutant zebrafish. The format is in vivo. Set-up: percent rescue at peak concentration relative to morpholino: dose or concentration left out as unconfirmed. The text has this:
The zebrafish breakdance mutant (Bkd−/−) fish is a unique model of action potential prolongation due to a mutation in the Zerg (zebrafish HERG) channel, that recapitulates human LQT2 syndrome and has been used in high throughput screens to identify molecules that may shorten the action potential duration. The phenotypic manifestation of the prolonged QT interval in the Bkd −/− fish is the presence of functional 2:1 AV block, and previous screens have taken advantage of this easily quantifiable phenotype to screen for ‘rescue’ from 2:1 AV block.
Bkd^−/− (Breakdance) adults were crossed, and the resultant embryos were reared in E3 buffer at 25° C. 24 hours post-fertilization (hpf) animals were dechorionated with pronase and plated per well in 96-well plates in a final volume of 200 μL. At 48 hpf, compounds were added to the appropriate concentration. Zebrafish were visually scored at 72 hpf for presence or absence of 2:1 AV block. For the dose response curve, the fish at 48 hpf were treated for 24 hours at the desired concentration (from 20 mM stock in DMSO) and scored for suppression of breakdance phenotype. Genetic inhibition of SGK1 was achieved either by injection of 500 μM of SGK1 morpholino or SGK1-dominant negative mRNA at the 1-2 cell stage and the fish were scored for rescue of 2:1 AV block at the 99 hpf stage.

Another data set addresses T1, SGK1 (Homo sapiens, UniProt O00141, S422D).
T1 construct: expressed in transfected cells; host or cells: neonatal rat ventricular myocytes (NRVMs) infected with adenovirus Ad.SGK1-CA
T1 sequence (O00141 1-431 S422D): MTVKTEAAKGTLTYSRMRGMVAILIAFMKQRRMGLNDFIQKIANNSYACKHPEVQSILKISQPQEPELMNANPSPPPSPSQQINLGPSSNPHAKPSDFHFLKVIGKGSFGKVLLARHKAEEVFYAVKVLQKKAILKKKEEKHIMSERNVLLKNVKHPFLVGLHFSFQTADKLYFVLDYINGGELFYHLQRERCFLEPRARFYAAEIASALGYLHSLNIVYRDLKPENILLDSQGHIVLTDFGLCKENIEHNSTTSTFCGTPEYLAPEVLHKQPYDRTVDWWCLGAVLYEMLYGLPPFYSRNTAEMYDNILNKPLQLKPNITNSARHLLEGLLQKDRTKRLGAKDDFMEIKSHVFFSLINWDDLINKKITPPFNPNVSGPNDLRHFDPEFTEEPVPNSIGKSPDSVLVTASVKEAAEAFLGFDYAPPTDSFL
The data set can be described thus: cell-based cardiomyocyte assay: SGK1-CA driven phosphorylation of GSK3β in NRVMs (immunoblot). Further details: species or system rat. The protocol:
(§1) These inhibitors were further characterized using a cell-based cardiomyocyte system (FIG. 3). 2×10^6 neonatal rat ventricular myocytes (NRVMs) were plated on 60 mm plates in DMEM containing 10% horse serum, 5% fetal bovine serum, 1% L-glutamine and 1% penstrep antibiotic. 24 h after plating media was changed to DMEM containing 1% L-glutamine, and 24 h following cells were infected with SGK-CA virus and treated with various concentrations of SGK inhibitors 5377051 (Compound 1A) and 6410136 (Chembridge compound catalogue #6410136). 12 h after infection and treatment, the media was changed and cells were treated again. 12 h following the second treatment NRVMs were harvested and lysed in 300 uL of cell lysis buffer (Cell Signaling) containing protease and phosphatase inhibitors and PMSF at 4 degrees C. for 1 h with shaking. Lysates were subjected to immunoblotting with an antibody against phospho […]-glycogen synthase kinase beta (p-GSK3β), a well-established SGK1 substrate. For gel electrophoresis, 50 ug of protein per well was loaded, transferred to nitrocellulose membrane, blocked, and incubated with GAPDH and P-GSK3β primary antibodies. As expected, Ad.
(In general: A western blot detects proteins with antibodies after separation by electrophoresis.)

In another data set the test system is Akt. The data set can be described thus: cardiomyocyte assay: Akt (myr-Akt) mediated phosphorylation of GSK3β in NRVMs (immunoblot). It is filed as cell-based, rat. The conditions noted are these: NRVMs infected with Ad.myr-Akt, FIG. 8B, FIG. 3. As to the method:
as §1, with “As expected, Ad.” left out
Because SGK1 and Akt are structurally related but have very different roles in the heart, with Akt deemed to be cardioprotective against stress, the inhibitors were assessed to determine if they have an off-target effect on Akt in CMs. […]

With `O=C1NC(=S)NC(=O)C1=Cc1ccccc1OCc1ccc(Cl)cc1` [Compound 1A], in the data set on bkd−/− mutant zebrafish (bkd−/− fish, compound at 45 μM), the “percent rescue of 2:1 AV block phenotype” value was found to be 58%. In addition, the toxicity entry in the data set with bkd−/− mutant zebrafish (bkd−/− fish, concentrations up to 50 μM) is “minimal and stable toxicity”. In addition, in the data set with bkd−/− mutant zebrafish (bkd−/− zebrafish, FIG. 2), the “percent rescue at peak concentration relative to morpholino” value was “comparable to rescue by morpholino” and the “toxicity in the dosages tested” value is reported as “no significant increase in toxicity”. For the same molecule, the “effect on Ad.SGK1-CA induced increase in p-GSK3β” value on SGK1 (NRVMs infected with SGK1-CA virus, FIG. 8A, FIG. 9) is given as “inhibited”. Besides, at SGK1 (cellular assay, 10 micromolar compounds, FIG. 8C), the “ability to inhibit SGK1 compared with EMD 638683” value is reported as “better or at least equivalent”. Besides, the “effect on Akt-mediated phosphorylation of GSK-3β (p-GSK3β)” value with Akt was “neither 5377051 nor 6410136 caused a significant inhibition”.
